The source of these data is patent publication US5919788A, “4-(1H-indol-1-yl)-1-piperidinyl derivatives” (Janssen Pharmaceutica, N.V., priority 1995, dated 1999).

Type in all cases: in vivo
The test system of one experiment is norepinephrine. The experiment in a line: combined apomorphine, tryptamine, norepinephrine (ATN) test in rats: norepinephrine (NOR), peripheral α-adrenergic antagonism. The note with it: Rattus norvegicus, read-out: NOR, ED50.
For another experiment, the system named is serotonin. The experiment in a line: combined apomorphine, tryptamine, norepinephrine (ATN) test in rats: tryptamine (TRY), central (convulsions) and peripheral (hyperaemia) serotonin antagonism. The settings on record: Rattus norvegicus.
The subject of a further experiment is dopamine. The experiment in a line: combined apomorphine, tryptamine, norepinephrine (ATN) test in rats: apomorphine (APO), central dopamine antagonism. The settings on record: Rattus norvegicus, preventing the symptoms elicited with apomorphine.
Setting [1] is: preventing central symptoms (convulsions), central serotonin antagonism, read-out: TRY convulsions, ED50.
The mark [2] stands for this setting: preventing peripheral symptoms (hyperaemia), peripheral serotonin antagonism, read-out: TRY hyperaemia, ED50.
[3] abbreviates: preventing or delaying death upon administration of norepinephrine, rats, peripheral α-adrenergic antagonism.

Where two headings read alike, the source gives them in different places.

Take `Cc1nc2n(c(=O)c1CCN1CCC(n3ccc4ccccc43)CC1)CCS2` [Compound 1, 2,3-dihydro-6[2-[4-(1H-indol-1-yl)-1-piperidinyl]ethyl]-7-methyl-5H-thiazolo[3,2-a]-pyrimidin-5-one]: the ED50 was > 10 mg/kg with norepinephrine, 0.63 mg/kg in the experiment on serotonin (setting [1]), 0.04 mg/kg in the experiment with serotonin (setting [2]) and 0.63 mg/kg with dopamine.

For the molecule `Cc1nc2n(c(=O)c1CCN1CCC(n3ccc4cc(F)ccc43)CC1)CCS2` [Compound 2], the ED50 in the experiment with norepinephrine is 10 mg/kg; with serotonin (setting [1]), 0.63 mg/kg; with serotonin (setting [2]) it was 0.01 mg/kg; in the experiment on dopamine, 0.16 mg/kg.

For the molecule `Cc1nc2sccn2c(=O)c1CCN1CCC(n2ccc3ccccc32)CC1` [Compound 3, 6-[2-[4-(1H-indol-1-yl)-1-piperidinyl]ethyl]-7-methyl-5H-thiazolo[3,2-a]pyrimidin-5-one], the ED50 was > 10 mg/kg in the experiment with norepinephrine, 0.16 mg/kg in the experiment on serotonin (setting [1]), 0.01 mg/kg in the experiment on serotonin (setting [2]) and 0.16 mg/kg in the experiment on dopamine.

Consider `Cc1nc2sccn2c(=O)c1CCN1CCC(n2ccc3cc(F)ccc32)CC1` [Compound 4, 6-[2-[4-(5-fluoro-1H-indol-1-yl)-1-piperidinyl]ethyl]-7-methyl-5H-thiazolo[3,2-a]-pyrimidin-5-one], for which the ED50 with norepinephrine is 2.5 mg/kg; in the experiment with serotonin (setting [1]), 0.04 mg/kg; in the experiment on serotonin (setting [2]), 0.01 mg/kg; in the experiment on dopamine, 0.04 mg/kg.

Take `Cc1nc2sccn2c(=O)c1CCN1CCC(N2CCc3ccccc32)CC1` [Compound 5]: the ED50 was 0.31 mg/kg in the experiment with serotonin (setting [1]), 0.02 mg/kg with serotonin (setting [2]) and 0.08 mg/kg in the experiment with dopamine.

Consider `Cc1nc2scc(C)n2c(=O)c1CCN1CCC(n2ccc3ccccc32)CC1` [Compound 6, 6-[2-[4-(1H-indol-1-yl)-1-piperidinyl]ethyl]-3,7-dimethyl-5H-thiazolo[3,2-a]pyrimidin-5-one], for which the ED50 was 10 mg/kg with norepinephrine, 0.16 mg/kg with serotonin (setting [1]), 0.01 mg/kg in the experiment with serotonin (setting [2]) and 0.16 mg/kg with dopamine.

As for `Cc1nn2c(=O)c(CCN3CCC(n4ccc5cc(F)ccc54)CC3)c(C)nc2s1` [Compound 8, 6-[2-[4-(5-fluoro-1H-indol-1-yl)-1-piperidinyl]-ethyl]-2,7-dimethyl-5H-1,3,4-thiadiazolo[3,2-a]pyrimidin-5-one], the ED50 is 10 mg/kg in the experiment with norepinephrine, 0.63 mg/kg in the experiment on serotonin (setting [1]), 0.04 mg/kg with serotonin (setting [2]) and 0.63 mg/kg in the experiment with dopamine.

For `Cc1cc2nc(C)c(CCN3CCC(n4ccc5cc(F)ccc54)CC3)c(=O)n2o1` [Compound 10], the ED50 in the experiment on norepinephrine worked out at 10 mg/kg; in the experiment on serotonin (setting [1]) it was 0.16 mg/kg; in the experiment on serotonin (setting [2]), 0.0025 mg/kg; with dopamine, 0.63 mg/kg.

In the case of `Cc1nc2n(c(=O)c1CCN1CCC(n3ccc4cc(F)ccc43)CC1)CCCC2` [Compound 12, 3-[2-[4-(5-fluoro-1H-indol-1-yl)-1-piperidinyl]ethyl]-6,7,8,9-tetrahydro-2-methyl-4H-pyrido[1,2-a]pyrimidin-4-one], the ED50 in the experiment with norepinephrine was > 10 mg/kg; in the experiment with serotonin (setting [1]), 0.31 mg/kg; with serotonin (setting [2]), 0.02 mg/kg; with dopamine, 0.31 mg/kg.

On to `COC1CCCn2c1nc(C)c(CCN1CCC(n3ccc4cc(F)ccc43)CC1)c2=O` (centres unmarked) [Compound 15], for which the 50% effective dose (ED50) was determined as 10 mg/kg in the experiment with norepinephrine, 0.63 mg/kg in the experiment with serotonin (setting [1]), 0.01 mg/kg in the experiment with serotonin (setting [2]) and 0.16 mg/kg with dopamine.

Regarding `Cc1nc2n(c(=O)c1CCN1CCC(n3ccc4ccccc43)CC1)CCCS2` [Compound 16], the ED50 in the experiment with norepinephrine was determined as 10 mg/kg; in the experiment with serotonin (setting [1]), 0.63 mg/kg; in the experiment with serotonin (setting [2]), 0.02 mg/kg; in the experiment on dopamine it was 0.16 mg/kg.

Consider `Cc1nc2n(c(=O)c1CCN1CCC(n3ccc4cc(F)ccc43)CC1)CCCS2` [Compound 17], for which the ED50 in the experiment with norepinephrine (setting [3]) stood at 5 mg/kg; with serotonin (setting [1]), 0.16 mg/kg; in the experiment on serotonin (setting [2]), 0.02 mg/kg; in the experiment on dopamine it was 0.08 mg/kg.

With `Cc1nc2ccccn2c(=O)c1CCN1CCC(n2ccc3cc(F)ccc32)CC1` [Compound 18], the ED50 worked out at 5 mg/kg in the experiment with norepinephrine (setting [3]), 0.08 mg/kg in the experiment on serotonin (setting [1]), 0.01 mg/kg in the experiment on serotonin (setting [2]) and 0.08 mg/kg with dopamine.

As to `Cc1nc2c(C)cccn2c(=O)c1CCN1CCC(n2ccc3ccccc32)CC1` [Compound 19], the ED50 is > 10 mg/kg in the experiment on norepinephrine, 2.5 mg/kg in the experiment with serotonin (setting [1]), 0.63 mg/kg in the experiment on serotonin (setting [2]) and 0.63 mg/kg in the experiment with dopamine.

Turning to `Cc1nc2c(C)cccn2c(=O)c1CCN1CCC(n2ccc3cc(F)ccc32)CC1` [Compound 20], the ED50 in the experiment on norepinephrine was > 10 mg/kg; with serotonin (setting [1]) it was 0.63 mg/kg; in the experiment with serotonin (setting [2]), 0.16 mg/kg; in the experiment with dopamine, 0.63 mg/kg.

For `CNc1nc(C)c(CCN2CCC(n3ccc4cc(F)ccc43)CC2)c(=O)n1C` [Compound 24, 5-[2-[4-(5-fluoro-1H-indol-1-yl)-1-piperidinyl]ethyl]-3,6-dimethyl-2-(methylamino)-4(3H)-pyrimidinone], the median effective dose (ED50) in the experiment on norepinephrine was found to be 10 mg/kg; with serotonin (setting [1]), 0.16 mg/kg; in the experiment with serotonin (setting [2]), 0.01 mg/kg; with dopamine it was 0.63 mg/kg.

For `CCSc1nc(C)c(CCN2CCC(n3ccc4ccccc43)CC2)c(=O)n1C` [Compound 25], the ED50 is > 10 mg/kg in the experiment with norepinephrine, 2.5 mg/kg in the experiment on serotonin (setting [1]), 0.16 mg/kg in the experiment on serotonin (setting [2]) and 0.63 mg/kg with dopamine.

`O=C(O)/C=C/C(=O)O.O=c1[nH]c2ccccc2n1CCCN1CCC(n2ccc3cc(F)ccc32)CC1` [Compound 28, 1-[3-[4-(5-fluoro-1H-indol-1-yl)-1-piperidinyl]propyl]-1,3-dihydro-2H-benzimidazol-2-one (E)-2-butenedioate (1:1)]: the values for the ED50 in the experiment with norepinephrine, in the experiment on serotonin (setting [1]) and in the experiment with serotonin (setting [2]) were > 10 mg/kg, 0.16 mg/kg and 0.01 mg/kg, respectively.

Turning to `Cc1nc2n(c(=O)c1CCN1CCC(n3ccc4cc(F)ccc43)CC1)C(C)CCC2` (centres unmarked) [Compound 29], the ED50 was found to be 5 mg/kg with norepinephrine (setting [3]), 0.31 mg/kg in the experiment on serotonin (setting [1]), 0.005 mg/kg in the experiment with serotonin (setting [2]) and 0.08 mg/kg in the experiment on dopamine.

Turning to `Cc1nc2n(c(=O)c1CCN1CCC(N3CCc4ccccc43)CC1)CCCC2` [Compound 31], the ED50 turned out to be 1.25 mg/kg in the experiment with serotonin (setting [1]), 0.31 mg/kg in the experiment on serotonin (setting [2]) and 1.25 mg/kg with dopamine.

As for `Cc1nc2n(c(=O)c1CCN1CCC(N3c4ccccc4CC3C)CC1)CCCC2` (centres unmarked) [Compound 34], the ED50 in the experiment with serotonin (setting [1]) is > 10 mg/kg; in the experiment on serotonin (setting [2]), ≤ 0.63 mg/kg; in the experiment on dopamine, 5 mg/kg.

As a reminder, the ED50 is the midpoint of the dose-response relation.
